The test system of test [1] is benzodiazepine binding site. The note with it: cited from earlier work.
In another test the target is GABAa receptor. As to the kind of experiment: GABAa receptor activity: displacement of 3H-RO15-1788 (3H-Flumazenil) binding in rat cortical tissue homogenate. The note with it: 0.5 nM 3H-RO15-1788 [3H-Flumazenil], 30 min at 4° C., pH 7.4. The protocol:
Rat cortical tissue is dissected and homogenized in 25 volumes (w/v) of 0.05 M Tris HCl buffer (pH 7.4 at 4° C.). The tissue homogenate is centrifuged in the cold (4°) at 20,000×g for 20'. The supernatant is decanted and the pellet is rehomogenized in the same volume of buffer and again centrifuged at 20,000×g. The supernatant is decanted and the pellet is frozen at -20° C. overnight. The pellet is then thawed and rehomogenized in 25 volume (original wt/vol) of buffer and the procedure is carried out twice. The pellet is finally resuspended in 50 volumes (w/vol of 0.05 M Tris HCl buffer (pH 7.4 at […]).
Incubations are carried for 30 min at 4° C. then are rapidly filtered through GFB filters to separate free and bound ligand. Filters are washed twice with fresh 0.05 M Tris HCl buffer (pH 7.4 at 4° C.) and counted in a liquid scintillation counter. […] diazepam is added to some tubes to determine nonspecific binding. Data are collected in triplicate determinations, averaged and % inhibition of total specific binding is calculated. Total Specific Binding=Total-Nonspecific. In some cases, the amounts of unlabeled drugs is varied and total displacement curves of binding are carried out. Data are converted to a form for the calculation of IC50 and Hill Coefficient (nH).
In general terms: Displacement assays read how much labelled ligand stays bound in the presence of the test substance.

We go through eight compounds from patent US6268496A, “Certain imidazoquinoxalines: a new class of GABA brain receptor ligands” (Neurogen Corporation, priority 1999, dated 2001).

A word on the IC50: it is the concentration that inhibits the measured activity by half.

With `CN1CCc2cc3c(cc2[C@H]1[C@@H]1OC(=O)c2c1ccc1c2OCO1)OCO3` [(+) bicuculline], in test [1], the “block of the enhancement of benzodiazepine binding by GABA agonists” value is “blocked”.

Consider `CN1CCc2cc3c(cc2[C@@H]1[C@H]1OC(=O)c2c1ccc1c2OCO1)OCO3` [(-) bicuculline], for which, in test [1], the “block of the enhancement of benzodiazepine binding by GABA agonists” value is on record as “much less active”.

In the case of `O=c1c2c[nH]c3ccccc3n-2c(=O)n1-c1ccccc1` [Compound 1, 2-Phenyl-imidazo[1,5-a]quinoxaline-1,3(2H,5H)-dione], the IC50 on GABAa receptor is 9.5 nM.

`CCOc1ccc(-n2c(=O)c3c[nH]c4ccccc4n-3c2=O)cc1` [Compound 3, 2-(4-ethoxyphenyl)-imidazo[1,5,a]quinoxaline-1,3(2H,5H)-dione] registered an IC50 at GABAa receptor of 15 nM.

For `COc1ccc(-n2c(=O)c3c[nH]c4ccccc4n-3c2=O)cc1` [Compound 4, 2-(4-Methoxyphenyl)-imidazo[1,5,a]quinoxaline-1,3(2H,5H)-dione], the IC50 on GABAa receptor came out at 9.5 nM.

For the compound `Cc1ccc(-n2c(=O)c3c[nH]c4ccccc4n-3c2=O)cc1` [Compound 5, 2-(4-Methylphenyl)-imidazo[1,5,a]quinoxaline-1,3(2H,5H)-dione], the IC50 on GABAa receptor was 16 nM.

Regarding `COc1ccc(-n2c(=O)c3c[nH]c4ccc(Br)cc4n-3c2=O)cc1` [Compound 33, 8-Bromo-2-(4-methoxyphenyl)-imidazo[1,5,a]quinoxaline-1,3(2H,5H)-dione], on GABAa receptor, the IC50 was found to be 2.4 nM.

Consider `NCCCC(=O)O` [GABA, γ-Aminobutyric acid], for which the “effect on binding of benzodiazepines” value in test [1] (low affinity (1 mM) GABA binding site) is on record as “enhance the binding of benzodiazepines”.
